Data as given in patent US20260345620A1, “IMPROVEMENTS IN OR RELATING TO COMPOSITIONS FOR TREATMENT OF LESIONS” (SYDERMA LTD, priority 2023, published 2026).
Each block holds one compound with its values, some of them ahead of it.

Columns and labels:
actinic keratoses [1] = conditions: topical; cited from earlier work
actinic keratoses [2] = experiment: Split-area topical treatment of actinic keratoses on scalp of person (Example 1); format: in vivo, human
Description: In one experiment a person with an actinic keratoses region on their scalp was treated with 5% 5-fluorouracil cream once daily for 30 days (as marked in FIG. 1, posterior region). Another area of actinic keratoses on their scalp (As marked on FIG. 1, anterior region) was treated with both 5% 5-fluorouracil cream once daily and 0.5% theobromine solution once daily for 30 days. The 5% 5-FU cream applied was a medically available cream from Mylan, commercially known as Efudix® cream. The theobromine solution was prepared in 25% ethanol and 50% glycerol, adjusted to pH 8 via 100 mM sodium hydrogen carbonate solution. Efudix® was stored as per manufacturer's instructions, at room temperature, and theobromine solution at room temperature in the dark. In application, 50-100 μL (1-2 drops) of theobromine solution was applied first in a thin water-based layer over the whole treated area evenly. 5-FU was applied 10-20 minutes later, via finger application, as per best practice and manufacturer's instructions. One fingertip unit (~0.5 g) was used for an equivalent of half the forehead area.
(§1) Redness and inflammation were assessed by the responsible physician.

basal cell carcinomas [3] = conditions: topical; cited from earlier work
basal cell carcinomas [4] = experiment: Topical treatment of basal cell carcinomas in person (Example 4); format: in vivo, human; conditions: one month after completing 1 month once daily treatment; 5% 5-FU with (2 lesions) or without (1 lesion) 0.5% theobromine
Description: In another example, a person with multiple basal cell carcinomas was treated with: 5% 5-fluorouracil (5-FU) cream alone (1 lesion, back, clinical diagnosis) or a combination of 5-FU cream and theobromine solution (2 lesions-biopsy confirmed basal cell carcinoma, right leg and basal cell carcinoma, left forearm, clinical diagnosis). The treatment was continued once daily for 1 month and 0.5% percent theobromine solution. In application, 50-100 μL (1-2 drops) of theobromine solution was applied in a thin water-based layer over the whole treated area evenly (up to 50 cm2 area in total). 5-FU was applied via finger application, as per best practice and manufacturer's instructions. One finger tip unit (0.5 g) was used to cover 1 lesion. 5FU was applied 30 min after theobromine. One month after completing treatment the patient was examined by a dermatologist. The lesions treated with 5FU and theobromine resolved and the lesion treated with 5FU persisted.

thymidylate synthase = conditions: role: inhibitor; cited from earlier work
actinic keratoses [5] = experiment: Split-scalp topical treatment of actinic keratoses in person (Example 2); format: in vivo, human
Description: Quantification is as described for Patient #2 in Table 1;
In another experiment a person with an actinic keratoses on their scalp was treated with 5% 5-fluorouracil cream 4× per week for 4 weeks (15 lesions, as marked in FIG. 2, left side of scalp). Another area of actinic keratoses on their scalp (16 lesions, as marked on FIG. 2, right side of scalp) was treated with both 5% 5-fluorouracil cream 4× per week and 0.5% theobromine solution 4× per week for 4 weeks. The 5% 5-FU cream applied was a medically available cream from Mylan, commercially known as Efudix® cream. The theobromine solution was prepared in 25% ethanol and 50% glycerol, adjusted to pH 8 via 100 mM sodium hydrogen carbonate solution. Efudix® was stored as per manufacturer's instructions, at room temperature, and theobromine solution at room temperature in the dark. In application, 50-100 μL (1-2 drops) of theobromine solution was applied first in a thin water-based layer over the whole treated area evenly. 5-FU was applied 10-20 minutes later, via finger application, as per best practice and manufacturer's instructions. One fingertip unit (~0.5 g) was used for an equivalent of half the forehead area.
as §1

[6] = topical; percent of patients; cited from earlier work
AK lesion = experiment: Split-scalp treatment of actinic keratoses with 5FU plus methylxanthine versus 5FU alone (Example 3); format: in vivo, human; conditions: for AK lesion clearance / efficacy versus 5FU alone control: 0.5% w/v methylxanthine in combination with Efudix 5% 5FU
Description: P values below 0.05, denoting significance, are as marked.
Results are shown per individual patient.
All patients were treated solely on the scalp and were only treated on half of the scalp with the test compound and 5FU, while the other half was used as control, treated with 5FU alone. Separation between combination and 5FU only control was mostly done medially, with one patient having and anterior/posterior treatment setup. As in Example 2, the patients self-administered the test compound on the test region 10-20 minutes before applying the Efudix® cream containing 5% w/v 5FU. In application, 50-100 μL (1-2 drops) of the test compound solution was applied first in a thin water-based layer over the whole treated area evenly. 5-FU was applied 10-20 minutes later, via finger application, as per best practice and manufacturer's instructions. Patients applied the regimen at regular intervals, once daily. One fingertip unit (~0.5 g) was used for an equivalent of half the scalp area.

[7] = cited from earlier work
basal cell carcinoma [8] = experiment: Topical theobromine alone on basal cell carcinoma in person (Example 7, comparative); format: in vivo, human; conditions: 0.5% theobromine solution once daily for 2 months
Description: (§2) In another example a person with a clinical diagnosis of basal cell carcinoma was treated with 0.5% percent theobromine solution. In application, 50-100 μL (1-2 drops) of theobromine solution was applied in a thin water-based layer over the whole treated area evenly (up to 50 cm 2 area in total). Theobromine was applied once daily for 2 months. At the end of the treatment, they were examined by a dermatologist.

actinic keratoses [9] = experiment: Topical theobromine alone on actinic keratoses on nose of person (Example 10, comparative); format: in vivo, human
Description: (§3) In another experiment a person with an area of actinic keratoses on their nose was treated with 0.5% theobromine solution once daily for 4 weeks. The theobromine solution was prepared in 25% ethanol and 50% glycerol, adjusted to pH 8 via 100 mM sodium hydrogen carbonate solution. Theobromine solution was stored at room temperature in the dark. In application, 50-100 μL (1-2 drops) of theobromine solution was applied first in a thin water-based layer over the whole treated area evenly.
(§4) The patient reported no discomfort with treatment: pain and soreness were reported by the patient to be 0/10 in areas treated with theobromine treatment.

basal cell carcinoma [10] = experiment: Topical theobromine alone on basal cell carcinoma in person (Example 8, comparative); format: in vivo, human; conditions: 0.5% theobromine solution once daily for 1 month
Description: as §2, with “for 1” for “for 2”, “months. The patient was” for “months. At the end of the treatment, they were”, “a dermatologist before the treatment and one week after completion of the treatment.” for “a dermatologist.”

PARP = conditions: role: inhibitor; physiologically and clinically achievable conditions; cited from earlier work
actinic keratoses [11] = experiment: Topical theobromine alone on actinic keratoses on scalp of person (Example 9, comparative); format: in vivo, human
Description: as §3, with “scalp” for “nose”
as §4

ATM = conditions: role: inhibitor; physiologically and clinically achievable conditions; cited from earlier work
ATR = conditions: role: inhibitor; physiologically and clinically achievable conditions; cited from earlier work
[12] = four weeks after completion of treatment
[13] = 0.5% theobromine solution once daily for 4 weeks

pain and soreness reported by the patient (actinic keratoses [2]; after 30 days of once daily treatment, 5% 5-FU cream with or without 0.5% theobromine solution): 9 /10 | redness, soreness and inflammation assessed by physician (actinic keratoses [2]; after 30 days of treatment): became inflamed | discomfort reported by the patient (actinic keratoses [2]; during 30 days of treatment): significant discomfort | pain reported by the patient (actinic keratoses [2]; [12]): no pain reported by the patient | redness, soreness and inflammation assessed by physician (actinic keratoses [5]; after 4 weeks of treatment): became inflamed | pain and soreness reported by the patient (actinic keratoses [5]; after 4 weeks, 4x per week, 5% 5-FU cream with or without 0.5% theobromine solution): 2 /10 | discomfort reported by the patient (actinic keratoses [5]; during 4 weeks of treatment): mild discomfort | pain reported by the patient (actinic keratoses [5]; [12]): no pain reported by the patient
SMILES: O=c1[nH]cc(F)c(=O)[nH]1 [5-FU, 5-fluorouracil]
efficacy for actinic keratoses (actinic keratoses [1]): 50-60% | inflammation and scaliness of treated area (actinic keratoses [2]; a week following cessation of treatment): significant inflammation and scaly appearance | clearance of the actinic keratosis lesion (actinic keratoses [2]; [12]): incomplete clearance | residual inflammatory reaction (actinic keratoses [2]; [12]): no visible residual inflammatory reaction | reduction in size of actinic keratosis lesion (actinic keratoses [2]; four weeks after completion of treatment, ImageJ image analysis): over 30% | efficacy for basal cell carcinomas (basal cell carcinomas [3]): 60-70% | basal cell carcinoma lesion outcome (basal cell carcinomas [4]): persisted | inhibition of thymidylate synthase (thymidylate synthase): inhibitor of thymidylate synthase | clearance of the actinic keratosis lesions (actinic keratoses [5]; [12]): incomplete clearance | residual inflammatory reaction (actinic keratoses [5]; [12]): no visible residual inflammatory reaction | actinic keratosis lesion count after treatment (actinic keratoses [5]; four weeks after completion, starting count 15 (5-FU alone), 16 (combination)): 14 lesions | patients with painful, severe inflammatory reaction [6]: 20-50%

SMILES: Cn1c(=O)c2c(ncn2C)n(C)c1=O [caffeine]
AK lesion clearance / efficacy versus 5FU alone control (AK lesion): decreased efficacy | trend in efficacy per patient (AK lesion; 0.5% w/v methylxanthine with 5FU versus 5FU alone baseline): neither caffeine not theophylline showed any positive trends

SMILES: CC(C)Cn1cnc2c(N)nc3ccccc3c21 [imiquimod]
efficacy for actinic keratoses (actinic keratoses [1]): 50-60% | efficacy for basal cell carcinomas (basal cell carcinomas [3]): 70-80% | patients with painful, severe inflammatory reaction [6]: 20-50%

inflammation or pain (basal cell carcinoma [8]): No evidence of inflammation or pain | pain and soreness reported by the patient (actinic keratoses [9]; [13]): 0 /10 | discomfort reported by the patient (actinic keratoses [9]; after 4 weeks of treatment): no discomfort | redness or inflammation (actinic keratoses [9]; after 4 weeks of treatment): no redness or inflammation detected | inflammation or pain (basal cell carcinoma [10]): No evidence of inflammation or pain | pain and soreness reported by the patient (actinic keratoses [11]; [13]): 0 /10 | discomfort reported by the patient (actinic keratoses [11]; after 4 weeks of treatment): no discomfort | redness or inflammation (actinic keratoses [11]; after 4 weeks of treatment): no redness or inflammation detected
SMILES: Cn1cnc2c1c(=O)[nH]c(=O)n2C [theobromine]
solubility [7]: limited solubility | basal cell carcinoma outcome (basal cell carcinoma [8]): basal cell carcinoma persisted | change in lesion appearance (basal cell carcinoma [8]): no change in the lesion appearance | reduction in number of actinic keratoses (actinic keratoses [9]; 1 week after completion of 4 weeks treatment): No reduction in a number of actinic keratoses | change in lesion size or appearance (basal cell carcinoma [10]): no change in the lesion size or appearance | basal cell carcinoma outcome (basal cell carcinoma [10]; one week after completion): basal cell carcinoma persisted | AK lesion clearance / efficacy versus 5FU alone control (AK lesion): significantly improved AK lesion clearance | inhibitory activity against PARP (PARP): triple inhibitory activity (against ATM, ATR and PARP) | reduction in number of actinic keratoses (actinic keratoses [11]; [13]): No reduction in a number of actinic keratoses | inhibitory activity against ATM (ATM): triple inhibitory activity (against ATM, ATR and PARP) | inhibitory activity against ATR (ATR): triple inhibitory activity (against ATM, ATR and PARP)
